We go through two molecules from patent publication US20130197090A1, “POSTURAL STABILITY AND INCIDENT FUNCTIONS IN PATIENTS” (Chelsea Therapeutics, Inc., priority 2012, published 2013).

Test [1] has as its system PD patients. The test can be described thus: Patient-reported falls, double-blind placebo-controlled study of Example 1. Format: in vivo, human. The method, then:
A multi-center, double-blind, randomized, parallel-group, placebo-controlled study was carried out to assess the clinical effect of droxidopa over the course of 10 weeks for reducing falls in PD patients. The study included a two week double-blind dose-titration period followed by an eight week double-blind treatment period. A screening period (up to 14 days) was used to determine patient eligibility. Throughout the study, visit specific assessments were conducted three hours (an acceptable range was two to five hours) following the patient's first daily dose of droxidopa. Patients who successfully passed all screening assessments continued to the baseline measurements. At the end of the baseline visit, eligible patients were randomized to treatment with either droxidopa or placebo (randomization was double-blind, 1:1). Patients entered a double-blind titration phase at 100 mg TID of droxidopa or matching placebo. Treatment was escalated in 100 mg TID increments to a maximum of 600 mg TID. Upon completion of the dose titration phase, patients returned for a study visit after 8 weeks of double-blind treatment at their titrated dose. The study included 27 placebo-treated patients and 24 droxidopa-treated patients. During the study, the placebo-treated patients reported a total of 197 falls compared with 79 falls reported by the droxidopa-treated patients. […] Standardizing the above data to the number of falls per patient per week, patients randomized to the placebo treatment experienced an average of 0.93 falls per patient per week. Patients randomized to the droxidopa treatment experienced an average of 0.39 falls per patient per week. This represents an approximate 60% reduction in the number of falls reported by droxidopa-treated patients compared with placebo-treated patients. […] In the study, it was evident that a number of patients in each group was not normally distributed—i.e., a few patients in each group experienced many more falls than the remaining patients in each respective group. A sensitivity analysis was performed to assess the robustness of the treatment effect in light of this disparity in falls within each group. The beneficial treatment effect favoring droxidopa was evident even when the top two patients or the top five patients who experienced the highest number of falls in each treatment group were removed from the analysis. See FIG. 4 and FIG. 5, respectively. When the top two patients in each treatment group were excluded, patients randomized to the placebo group experienced an average of 0.54 falls per patient per week compared with 0.16 falls per patient per week in patients randomized to the droxidopa group. Similarly, when the top five patients in each treatment group were excluded, patients randomized to the placebo group experienced an average of 0.20 falls per patient per week compared with 0.10 falls per patient per week in patients randomized to the droxidopa group.

Test [2] has as its system PD patients. The test can be described thus: Hoehn and Yahr rating scale score, study of Example 1. Format: in vivo, human. Particulars: for Hoehn and Yahr, Baseline: before treatment. The method, then: (§1) A multi-center, double-blind, randomized, parallel-group, placebo-controlled study was carried out to assess the clinical effect of droxidopa over the course of 10 weeks for reducing falls in PD patients. The study included a two week double-blind dose-titration period followed by an eight week double-blind treatment period. A screening period (up to 14 days) was used to determine patient eligibility. Throughout the study, visit specific assessments were conducted three hours (an acceptable range was two to five hours) following the patient's first daily dose of droxidopa. Patients who successfully passed all screening assessments continued to the baseline measurements. At the end of the baseline visit, eligible patients were randomized to treatment with either droxidopa or placebo (randomization was double-blind, 1:1). Patients entered a double-blind titration phase at 100 mg TID of droxidopa or matching placebo. Treatment was escalated in 100 mg TID increments to a maximum of 600 mg TID. Upon completion of the dose titration phase, patients returned for a study visit after 8 weeks of double-blind treatment at their titrated dose. The study included 27 placebo-treated patients and 24 droxidopa-treated patients.
(§2) Patients in the study were evaluated using the Hoehn and Yahr rating scale and the Movement Disorder Society-sponsored revised version of the UPDRS to evaluate the effect of treatment as evidenced by these two scales. A baseline score for each patient using each test was established prior to treatment with droxidopa or the placebo, and a post-treatment score for each test was established at the end of the study.
Since the Hoehn and Yahr rating scale is heavily weighted towards postural instability as the primary index of disease severity, it is believed that the Hoehn and Yahr score serves as a useful measure of the effect of treatment on NOH in a PD patient population. At the end of this study, droxidopa-treated patients experienced, on average, an improvement from baseline (i.e., a reduction in the score) in their Hoehn and Yahr rating scale score (change: −0.4 points) while placebo-treated patients experienced no change from baseline in their Hoehn and Yahr rating scale score, resulting in a notable treatment difference of −0.4 units favoring droxidopa. Based on an analysis of Hoehn and Yahr rating scale scores in individual patients, a higher proportion of droxidopa-treated patients experienced an improvement in their Hoehn and Yahr rating scale score at the end of the study (10 of 24 patients; 42%) compared with placebo-treated patients (5 of 27 patients; 19%). Conversely, a lower proportion of droxidopa-treated patients experienced a worsening in their Hoehn and Yahr rating scale score at the end of the study (3 of 24 patients; 13%) compared with placebo-treated patients (10 of 27 patients; 37%).

In test [3] the test system is PD patients. The test can be described thus: MDS-UPDRS score, study of Example 1. Format: in vivo, human. Particulars: for MDS-UPDRS, Baseline: before treatment. The method, then:
as §1, §2
The UPDRS likewise is a useful test for evaluating improvements in symptoms that can be a cause of falls in PD patients since this scale is used to assess the severity of motor and non-motor symptoms in PD patients. In the present study, droxidopa-treated patients experienced a 15.8 point improvement (i.e., decrease) from baseline compared with an 11.4 point improvement in placebo-treated patients. […] The 4.4 point treatment difference favoring droxidopa in the total UPDRS score reflects pronounced improvement in the motor features of PD and mirrors the improvements observed on the Hoehn and Yahr rating scale score.

For test [4], the system named is PD patients. The experiment in a line: Patient falls, double-blind placebo-controlled study of Example 2. Format: in vivo, human. The method, then:
A multi-center, double-blind, randomized, placebo-controlled study was carried out to assess the clinical effect of droxidopa for reducing falls in PD patients. The study included a two week double-blind dose-titration period followed by an eight week double-blind treatment period. A screening period (up to 14 days) was used to determine patient eligibility. The patients were then randomized into a treatment group and a placebo group. Patients entered a double-blind titration phase at 100 mg TID of droxidopa or matching placebo. Treatment was escalated in 100 mg TID increments to a maximum of 600 mg TID. Upon completion of the dose titration phase, patients returned for study visits after 1, 2, 4, and 8 weeks of double-blind treatment at their titrated dose. The study included 78 placebo-treated patients and 69 droxidopa-treated patients. […] This is illustrated in FIG. 9.

Test [5] deals with PD patients suffering from "freezing of gait". Conditions: Narabayashi et al. 1981; cited from earlier work.
The next test addresses T1, MAO-A (Homo sapiens, UniProt P21397).
T1 sequence (P21397 1-527): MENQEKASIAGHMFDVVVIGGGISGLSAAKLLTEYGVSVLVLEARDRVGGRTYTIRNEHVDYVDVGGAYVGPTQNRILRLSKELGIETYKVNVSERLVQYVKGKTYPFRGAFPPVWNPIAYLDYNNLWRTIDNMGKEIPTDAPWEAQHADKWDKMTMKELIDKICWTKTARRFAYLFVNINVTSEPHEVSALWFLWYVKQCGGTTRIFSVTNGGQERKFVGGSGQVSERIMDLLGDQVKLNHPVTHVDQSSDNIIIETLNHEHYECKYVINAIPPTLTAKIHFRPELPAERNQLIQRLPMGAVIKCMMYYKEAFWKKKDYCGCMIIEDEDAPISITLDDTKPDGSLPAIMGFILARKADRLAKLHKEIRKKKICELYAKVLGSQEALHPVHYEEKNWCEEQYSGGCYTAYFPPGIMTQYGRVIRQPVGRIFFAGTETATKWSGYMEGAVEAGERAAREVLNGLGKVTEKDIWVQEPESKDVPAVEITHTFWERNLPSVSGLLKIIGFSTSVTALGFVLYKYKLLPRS
Conditions: cited from earlier work.

The mark [6] stands for this setting: patients with recurrent falls, versus placebo.

The structures appear in SMILES notation.

As to `NC(C(=O)O)C(O)c1ccc(O)c(O)c1` (stereo not drawn) [droxidopa, threo-3-(3,4-dihydroxyphenyl) serine], the “reduction in the number of falls compared with placebo-treated patients” value in the test on PD patients [1] is listed as ~60%. Also, the “total number of falls reported during the study” value in the test on PD patients [1] (10 weeks, 24 droxidopa-treated patients, titrated 100-600 mg TID, placebo 197) was 79 falls. Also, in the test on PD patients [1] (data from the first 10 days of the study removed), the “treatment effect on total number of patient falls” value is recorded as “beneficial treatment effect favoring droxidopa on the total number of patient falls remained evident”. Moreover, the “average falls per patient per week” value in the test with PD patients [1] (full analysis set, placebo 0.93) is on record as 0.39 falls per patient per week. Besides, the “patients who experienced recurrent falls” value in the test on PD patients [1] (of 24 droxidopa-treated patients, placebo 12 of 27) is listed as “nine”. Moreover, the “average falls per patient per week” value with PD patients [1] (top five patients with highest number of falls in each group excluded, placebo 0.20) is 0.10 falls per patient per week. Besides, the “average falls per patient per week” value in the test on PD patients [1] (top two patients with highest number of falls in each group excluded, placebo 0.54) is given as 0.16 falls per patient per week. Moreover, the “cumulative number of patient-recorded falls over time” value in the test with PD patients [1] (versus placebo) is recorded as “relative increase in the number of falls in the placebo treatment group over time was consistently larger compared with the relative increase over time in the droxidopa treatment group”. Also, in the test on PD patients [2] (Non-recurrent Fallers (n = 15)), the “Hoehn and Yahr, End of Study” value amounted to 1.4; the “Hoehn and Yahr, Baseline” value is on record as 1.8. For the same molecule, in the test on PD patients [2] (Recurrent Fallers (n = 9)), the “Hoehn and Yahr, End of Study” value turned out to be 1.7; the “Hoehn and Yahr, Baseline” value turned out to be 1.9. For the same molecule, in the test with PD patients [2] (end of study, N = 24), the “Change in Hoehn and Yahr Rating Scale Score: Improved, %” value turned out to be 42%; the “Change in Hoehn and Yahr Rating Scale Score: No Change, %” value is on record as 46%; the “Change in Hoehn and Yahr Rating Scale Score: Worsened, %” value is given as 13%. Further, the “change from baseline in Hoehn and Yahr rating scale score” value in the test on PD patients [2] (end of study, all droxidopa-treated patients, average, placebo no change) is listed as −0.4 points. The “treatment difference in Hoehn and Yahr rating scale score favoring droxidopa” value in the test on PD patients [2] (end of study, versus placebo) is recorded as −0.4 units. Moreover, the “improvement in Hoehn and Yahr score” value in the test with PD patients [2] (setting [6]) is reported as “marked improvement”. Also, in the test with PD patients [3] (Non-recurrent Fallers (n = 15)), the “MDS-UPDRS, End of Study” value is on record as 58.1 and the “MDS-UPDRS, Baseline” value is on record as 74.3. In the test on PD patients [3] (Recurrent Fallers (n = 9)), the “MDS-UPDRS, End of Study” value was determined as 77.7 and the “MDS-UPDRS, Baseline” value is on record as 89.1. For the same molecule, the “improvement (decrease) from baseline in UPDRS score” value in the test with PD patients [3] (end of study, all droxidopa-treated patients, placebo 11.4) is given as 15.8 point. The “improvement in UPDRS score” value in the test on PD patients [3] (setting [6]) is “marked improvement”. For the same molecule, in the test with PD patients [3] (versus placebo), the “each of the four components of the UPDRS score” value is “showed benefits for droxidopa compared with placebo” and the “treatment difference favoring droxidopa in the total UPDRS score” value was 4.4 point. In the test with PD patients [4] (69 droxidopa-treated, 78 placebo-treated patients, titrated 100-600 mg TID), the “rate of falls per patient per week” value is recorded as “visibly less than in the placebo treatment group”. In the test with PD patients [4] (top two, top five and top ten patients with highest number of falls in each group removed), the “treatment effect on falls, sensitivity analysis” value is reported as “beneficial treatment effect favoring droxidopa was again evident”. In addition, the “effect on freezing of gait” value in test [5] was “a beneficial effect was reported”.

Regarding `O=C(NCCN1CCOCC1)c1ccc(Cl)cc1` [moclobemide], the “selectivity for MAO-A over MAO-B” value at MAO-A is given as “approximately three times more selective for MAO-A than MAO-B”.
